SMILES strings stand for the structures. Counter-ions that a name gives are not always drawn.

For one data set, the system named is AMPA receptor. In words: Inhibition of the cainate-induced signal at the AMPA receptor, electrophysiology on neuronal cells (patch-clamp method). The class given is cell-based. The settings on record: test concentration of 100 μM. The protocol: The testing was carried out at a test concentration of 100 μM.
For data set [1], the target named is Na+ channel site 2 binding site. In words: Affinity to the "Na+ channel site 2" binding site (method of G. B. Brown). The settings on record: testing typically at a test concentration of 10 μM.

Broadly, the melting point is the temperature, or range, at which the solid turns liquid. On to `Cc1ccccc1-n1nc(-c2ccccc2)n(CCN(C)C)c1=O` (as salt: HCl) [Example 27, 4-(2-N,N-dimethyl-aminoethyl)-2-(2-methyl-phenyl)-5-phenyl-3H-1,2,4-triazol-3-one], for which the melting point lay in the range of 204 to 207 °C.
Same read-out and setting: in the case of `Cc1cccc(-n2[nH]c(-c3ccccc3)nc2=O)c1` (as salt: HCl) [Example 46, 2-(3-methyl-phenyl)-5-phenyl-3H-1,2,4-triazol-3-one] it was 207 to 208 °C.
The same measure, in the same setting: in the case of `CN(C)CCn1c(-c2ccccc2)nn(-c2cccc(F)c2)c1=O` (as salt: HCl) [Example 49, 2-(3-fluorophenyl)-4-(2-N,N-dimethyl-aminoethyl)-5-phenyl-3H-1,2,4-triazol-3-one] it was 201 to 203 °C; in that of `Cc1cccc(-n2nc(-c3ccccc3)n(CCN(C)C)c2=O)c1` (as salt: HCl) [Example 53, 4-(2-N,N-dimethyl-amino-ethyl)-2-(3-methyl-phenyl)-5-phenyl-3H-1,2,4-triazol-3-one], 204 to 206 °C.
`Cc1ccccc1-n1[nH]c(-c2ccccc2)nc1=O` [Example 1, 2-(2-methyl-phenyl)-5-phenyl-3H-1,2,4-triazol-3-one] had a melting point of 208 to 211 °C. Besides, in the data set on AMPA receptor, the “AMPA Inh. [%] (inhibition of the cainate-induced signal at the AMPA receptor)” value was 58%.
For `COc1cccc(-n2nc(-c3ccccc3)n(C)c2=O)c1` [Example 5, 2-(3-methoxy-phenyl)-4-methyl-5-phenyl-3H-1,2,4-triazol-3-one], in that order: 81 to 83 °C and 58%.
For the molecule `Cn1c(-c2ccccc2)nn(-c2ccccc2Br)c1=O` [Example 8, 2-(2-bromo-phenyl)-4-methyl-5-phenyl-3H-1,2,4-triazol-3-one], the melting point fell in the range of 80 to 82 °C. For the same molecule, in the data set on AMPA receptor, the “AMPA Inh. [%] (inhibition of the cainate-induced signal at the AMPA receptor)” value is listed as 87%.
`COc1ccc(-c2nn(-c3ccccc3)c(=O)n2C)cc1` [Example 22, 5-(4-methoxy-phenyl)-4-methyl-2-phenyl-3H-1,2,4-triazol-3-one] came in with a melting point of 118 °C. Besides, the “AMPA Inh. [%] (inhibition of the cainate-induced signal at the AMPA receptor)” value in the data set on AMPA receptor stood at 50%.
In turn, `COc1ccccc1-c1nn(-c2ccccc2)c(=O)n1C` [Example 25, 5-(2-methoxy-phenyl)-4-methyl-2-phenyl-3H-1,2,4-triazol-3-one] had a melting point of 117 °C. In the data set with AMPA receptor, the “AMPA Inh. [%] (inhibition of the cainate-induced signal at the AMPA receptor)” value is given as 72%.
As usually defined, the Ki is a measure of affinity in units of concentration, obtained from inhibition or displacement. With `Cc1ccccc1-n1nc(-c2ccccc2)n(CCN(C)C)c1=O` [Example 27, 4-(2-N,N-dimethyl-aminoethyl)-2-(2-methyl-phenyl)-5-phenyl-3H-1,2,4-triazol-3-one], in the data set with AMPA receptor, the “AMPA Inh. [%] (inhibition of the cainate-induced signal at the AMPA receptor)” value was found to be 64%. Moreover, in data set [1], the affinity corresponds to a Ki of 5.41 µM.
As to `COc1ccccc1-n1[nH]c(-c2ccccc2)nc1=O` [Example 32, 2-(2-methoxy-phenyl)-5-phenyl-3H-1,2,4-triazol-3-one], the melting point lay in the range of 275 to 277 °C. The “AMPA Inh. [%] (inhibition of the cainate-induced signal at the AMPA receptor)” value with AMPA receptor was determined as 73%.
The like results for `O=c1nc(-c2ccccc2)[nH]n1-c1ccccc1Cl` [Example 33, 2-(2-chloro-phenyl)-5-phenyl-3H-1,2,4-triazol-3-one] were, in that order, 257 °C and 97%.
As to `CN(C)CCn1c(-c2ccccc2)nn(-c2cccc(Cl)c2)c1=O` [Example 35, 2-(3-chloro-phenyl)-4-(2-N,N-dimethylamino-ethyl)-5-phenyl-3H-1,2,4-triazol-3-one], the Ki in data set [1] is 2.08 µM.
`O=c1nc(-c2ccccc2)[nH]n1-c1ccccc1F` [Example 37, 2-(2-fluoro-phenyl)-5-phenyl-3H-1,2,4-triazol-3-one]: the melting point was 238 to 240 °C. In addition, the “AMPA Inh. [%] (inhibition of the cainate-induced signal at the AMPA receptor)” value in the data set on AMPA receptor amounted to 86%.
As for `Cn1c(-c2ccccc2)nn(-c2cccc(F)c2)c1=O` [Example 42, 2-(3-fluoro-phenyl)-4-methyl-5-phenyl-3H-1,2,4-triazol-3-one], the melting point is 81 °C. The “AMPA Inh. [%] (inhibition of the cainate-induced signal at the AMPA receptor)” value with AMPA receptor was determined as 96%.
The like results for `Cn1c(-c2ccccc2)nn(-c2ccccc2F)c1=O` [Example 44, 2-(2-fluoro-phenyl)-4-methyl-5-phenyl-3H-1,2,4-triazol-3-one] were, in that order, 65 to 66 °C and 76%.
For `Cc1cccc(-n2[nH]c(-c3ccccc3)nc2=O)c1` [Example 46, 2-(3-methyl-phenyl)-5-phenyl-3H-1,2,4-triazol-3-one], in the data set with AMPA receptor, the “AMPA Inh. [%] (inhibition of the cainate-induced signal at the AMPA receptor)” value was determined as 54%.
For `CCc1ccccc1-n1[nH]c(-c2ccccc2)nc1=O` [Example 48, 2-(2-ethyl-phenyl)-5-phenyl-3H-1,2,4-triazol-3-one], the melting point lay in the range of 209 to 210 °C. The “AMPA Inh. [%] (inhibition of the cainate-induced signal at the AMPA receptor)” value in the data set with AMPA receptor worked out at 63%.
Molecule `CN(C)CCn1c(-c2ccccc2)nn(-c2cccc(F)c2)c1=O` [Example 49, 2-(3-fluorophenyl)-4-(2-N,N-dimethyl-aminoethyl)-5-phenyl-3H-1,2,4-triazol-3-one] displayed a Ki in data set [1] of 6.58 µM.
For `Cc1cccc(-n2nc(-c3ccccc3)n(C)c2=O)c1` [Example 50, 4-methyl-2-(3-methyl-phenyl)-5-phenyl-3H-1,2,4-triazol-3-one], the melting point lay within 91 to 92 °C. For the same molecule, in the data set on AMPA receptor, the “AMPA Inh. [%] (inhibition of the cainate-induced signal at the AMPA receptor)” value was 71%.
`Cc1cccc(-n2nc(-c3ccccc3)n(CCN(C)C)c2=O)c1` [Example 53, 4-(2-N,N-dimethyl-amino-ethyl)-2-(3-methyl-phenyl)-5-phenyl-3H-1,2,4-triazol-3-one] registered a Ki in data set [1] of 5.78 µM.
`Cn1c(-c2ccccc2)nn(-c2ccccc2Cl)c1=O` [Example 55, 2-(2-chloro-phenyl)-4-methyl-5-phenyl-3H-1,2,4-triazol-3-one] gave a melting point of 94 to 96 °C. Further, in the data set with AMPA receptor, the “AMPA Inh. [%] (inhibition of the cainate-induced signal at the AMPA receptor)” value was determined as 80%.
With `O=c1nc(-c2ccccc2)[nH]n1-c1ccccc1Br` [Example 56, 2-(2-bromo-phenyl)-5-phenyl-3H-1,2,4-triazol-3-one], the melting point was 246 to 264 °C. In the data set on AMPA receptor, the “AMPA Inh. [%] (inhibition of the cainate-induced signal at the AMPA receptor)” value stood at 96%.

The values above are taken from patent publication US6492407B2, “Pharmaceutical compositions containing triazolones and methods of treating neurodegenerative disease using triazolones” (Boehringer Imgelheim Pharma KG, priority 1998, dated 2002).
